Results taken from publication PMC9585577, “Oxyresveratrol and Gnetol Glucuronide Metabolites: Chemical Production, Structural Identification, Metabolism by Human and Rat Liver Fractions, and In Vitro Anti-inflammatory Properties” (Journal of Agricultural and Food Chemistry, 2022).
Like-named read-outs stand apart in the source and are kept apart here.

Legend:
[1] = system: macrophages; design: method as in PMID 24257684; conditions: macrophages ref 37; cited from earlier work
[2] = system: human liver S9 fractions; experiment: In vitro glucuronidation by human hepatic S9 fractions; type: in vitro ADME; conditions: for Vmax: human S9 0.5 mg/mL
Protocol: (§1) To study the production of glucuronide metabolites in vitro, human and rat S9 hepatic fractions were used. To ensure that the formation rates of metabolites were linear over the incubation time and at the concentration of protein, a series of preliminary experiments was performed to optimize the reactions.
(§2) Glucuronidation was studied by incubation of human or rat liver S9 fractions (0.5 mg/mL) with ORV or GN at different concentrations (0–3000 μM) in Tris–HCl buffer (50 mM, pH 7.4) in the presence of UDPGA (1 mM), alamethicin (25 μg/mL), and MgCl2 (5 mM). All samples were prepared in Eppendorf tubes in a final volume of 100 μL. After 15 min at 37 °C, 100 μL of methanol (100%) was incorporated to stop the reaction and precipitate the proteins. Finally, samples were centrifuged for 30 min at 14000g and 4 °C, and the supernatants were analyzed by UPLC–DAD–MS. Analysis were carried out using 1290 Infinity UPLC (Agilent Technologies, Courtaboeuf, France). The UPLC system was coupled to an Esquire 3000 Plus ion trap mass spectrometer using an ESI source (Bruker-Daltonics, Billerica, MA, U.S.A.). A total of 2 μL was injected into an Agilent SB-C18 column (1.8 μm, 2.1 × 100 mm). Samples were eluted with solvent A (H2O/0.1% formic acid) and solvent B (acetonitrile/0.1% formic acid) with the following gradient program: 10% B (from 0 to 1.7 min), 10–20% B (from 1.7 to 3.4 min), 20–30% B (from 3.4 to 5.1 min), 30% B (from 5.1 to 7.8 min), 30–35% B (from 7.8 to 9.5 min), 35–60% B (from 9.5 to 11.9 min), 60–100% B (from 11.9 to 15.3 min), 100% B (from 15.3 to 17 min), and 100–10% B (from 17 to 17.3 min). The flow rate was set at 0.4 mL/min, and the UV detector was set at wavelengths of 280 and 320 nm. Total ion chromatograms were obtained using negative mode with a range of m/z 130–1400. The parameters were as follows: capillary voltage, +4 kV; nebulizer pressure, 40 psi; dry gas, 10 L/min; and dry temperature, 365 °C. Data analysis was performed with Bruker Data Analysis 3.2 (Bruker-Daltonics, Billerica, MA, U.S.A.). Metabolite concentrations were quantified with the corresponding standard curve of ORV and GN glucuronides previously obtained by hemisynthesis.
(§3) The kinetic parameters, Km, Vmax, and Ki, were calculated using the GraphPad Prism software (version 6.01) (substrate inhibition as the kinetic model). The data obtained from MTT, NO, ROS, IL-1β, and TNF-α production were subjected to one-way analysis of variance (ANOVA). A comparison between LPS and the different tested concentrations of ORV, GN, and their glucuronide metabolites was performed using Dunnet’s test, and p < 0.05 was considered significant (GraphPad Prism software, version 6.01).
(§4) An important objective of this work was to study the in vitro metabolization of t-ORV and t-GN in rat and human species using S9 hepatic fractions. To this end, both stilbene monomers were incubated (37 °C, 15 min) at different concentrations (0–3000 μM) with human and rat S9 fractions (0.5 mg/mL) in the presence of UDPGA as a co-substrate of phase II enzymes. Then, samples were injected into a HPLC–DAD–MS system to identify and quantify the in vitro generated metabolites.

[3] = system: rat liver S9 fractions; experiment: In vitro glucuronidation by rat hepatic S9 fractions; type: in vitro ADME; conditions: for Vmax: rat S9 0.5 mg/mL
Protocol: as §1, §2, §3, §4

[4] = system: NO production in LPS-stimulated RAW 264.7 cells; experiment: NO measurement (Griess) in LPS-stimulated macrophages; type: cell-based, murine; conditions: for reduction of NO production: 50 μM, versus LPS alone
Protocol: (§5) RAW 264.7 cells were cultured in DMEM containing 10% FBS and maintained in a humidified incubator set at 37 °C with 5% CO2. For all following assays, cells were subcultured at a density of 40 000 cells per well in 96 well culture plates with 200 μL of the above-described culture medium. After 24 h, cells were incubated with ORV, GN, and their glucuronide metabolites (5–200 μM) in RPMI medium supplemented with glutamine (4 mM) in the presence or absence of LPS (0.1 μg/mL) (200 μL final volume per well). For MTT, NO, ROS, IL-1β, and TNF-α (n = 4), each experiment was performed in triplicate separately.
After 24 h of treatment of RAW 264.7 cells with ORV, GN, and their glucuronide metabolites, 70 μL of supernatant was mixed with 70 μL of Griess solution. After 15 min in darkness, the absorbance was measured at 550 nm using a microplate reader (FLUOstar Optima, BMG Labtech). A calibration curve of NO2 (0–100 μM) was used for quantification. Data were expressed as NO production (μM) compared to cells treated only with LPS (positive control).

[5] = system: ROS production in LPS-stimulated RAW 264.7 cells; experiment: Intracellular ROS measurement (DCFH2-DA) in LPS-stimulated macrophages; type: cell-based, murine
Protocol: as §5
Generation of intracellular ROS in cells was analyzed using the fluorometric probe DCFH2-DA. After 24 h of treatment with GN, ORV, and their glucuronide metabolites, cells were washed with phosphate-buffered saline (PBS) and then 150 μL of DCFH2-DA (10 μM) was added. After 30 min at 37 °C, the fluorescence intensity was quantified using a microplate reader (FLUOstar Optima, BMG Labtech) with a wavelength of excitation and emission of 485 and 520 nm, respectively. All experiments were performed in darkness. Results were expressed as ROS production (fluorescence intensity expressed as arbitrary units) compared to cells treated only with LPS (positive control).

[6] = system: TNF-α production in LPS-stimulated RAW 264.7 cells; experiment: TNF-α production (ELISA) in LPS-stimulated macrophages; type: cell-based, murine; conditions: 24 h
Protocol: as §5
At 24 h after seeding, RAW 264.7 cells were exposed to LPS (0.1 μg/mL) in the absence or presence of ORV, GN (10 and 50 μM), and their metabolites (50 and 200 μM). After 24 h of exposure, IL-1β and TNF-α concentrations were measured in culture media supernatants by ELISA sandwich assay following the instructions of the manufacturer.

[7] = system: RAW 264.7 cells; experiment: MTT cell viability; type: cell-based, murine; conditions: 24 h, 5–200 μM tested
Protocol: as §5
The MTT colorimetric assay was performed to assess the cell viability of cells after being treated with ORV, GN, and their glucuronide metabolites. After 24 h of treatment, RAW 264.7 cells were incubated with 0.5 mg/mL MTT during 3 h at 37 °C. The formazan crystals formed were dissolved with 100 μL of dimethyl sulfoxide (DMSO), and the plate was then incubated in the darkness for 30 min. Finally, the absorbance was measured at 595 nm using a microplate reader (FLUOstar Optima, BMG Labtech).

[8] = system: HMC3 cells; design: method as in PMID 32842681; conditions: HMC3 cells ref 8; cited from earlier work
[9] = system: macrophage cell line; conditions: 100 μM, 18 h incubation ref 6; cited from earlier work
[10] = system: RAW 264.7 cells; conditions: cited from earlier work
[11] = in vivo, 400 umol/kg; cited from earlier work
[12] = cited from earlier work
[13] = incubation of parent ORV or GN with human S9, UPLC–DAD–MS
[14] = formation of the glucuronide from GN
[15] = formation of the glucuronide from ORV
[16] = between 25 and 50 μM (summary statement)

For `O=C(O)[C@H]1O[C@@H](Oc2ccc(/C=C/c3cc(O)cc(O)c3)cc2)[C@H](O)[C@@H](O)[C@@H]1O` [resveratrol-4′-O-glucuronide], the cytotoxic effect [1] is given as “neither resveratrol-3-O-glucuronide nor resveratrol-4′-O-glucuronide had any cytotoxic effect”.
With `O=C(O)[C@H]1O[C@@H](Oc2cc(O)cc(/C=C/c3c(O)cccc3O)c2)[C@H](O)[C@@H](O)[C@@H]1O` [t-GN-3G, trans-gnetol-3-O-glucuronide] the “metabolite formed/detected in samples” value [2, 13] was “very low quantities”.
With `O=C(O)[C@H]1O[C@@H](Oc2cccc(O)c2/C=C/c2cc(O)cc(O)c2)[C@H](O)[C@@H](O)[C@@H]1O` [t-GN-2′G, trans-gnetol-2′-O-glucuronide] the Vmax [3, 14] was 6.88 ± 0.86 nmol min^–1 mg^–1 of protein and the Vmax [2, 14] was 2.48 ± 0.31 nmol min^–1 mg^–1 of protein.
With `O=C(O)[C@H]1O[C@@H](Oc2cc(O)cc(/C=C\c3ccc(O)cc3O)c2)[C@H](O)[C@@H](O)[C@@H]1O` (relative stereo) [c-ORV-3G, cis-oxyresveratrol-3-O-glucuronide] the Vmax/Km [3] was 0.073 ± 0.044 μL min^–1 mg^–1 of protein, the Vmax [3, 15] was 31.34 ± 5.6 nmol min^–1 mg^–1 of protein and the Vmax/Km [2] was 0.159 ± 0.066 μL min^–1 mg^–1 of protein. For the same molecule, the Vmax [2, 15] was 13.01 ± 1.04 nmol min^–1 mg^–1 of protein.
In the case of `O=C(O)[C@H]1O[C@@H](Oc2cc(O)cc(/C=C/c3ccc(O)cc3)c2)[C@H](O)[C@@H](O)[C@@H]1O` [resveratrol-3-O-glucuronide], the cytotoxic effect [1] is given as “neither resveratrol-3-O-glucuronide nor resveratrol-4′-O-glucuronide had any cytotoxic effect”.
With `O=C(O)[C@H]1O[C@@H](Oc2ccc(/C=C/c3cc(O)cc(O)c3)c(O)c2)[C@H](O)[C@@H](O)[C@@H]1O` [t-ORV-4′G, trans-oxyresveratrol-4′-O-glucuronide] the “reduction of NO production” value ([4]; 24 h, LPS 0.1 μg/mL) was 27.2%.
In the case of `O=C(O)[C@H]1O[C@@H](Oc2cc(O)ccc2/C=C\c2cc(O)cc(O)c2)[C@H](O)[C@@H](O)[C@@H]1O` (relative stereo) [c-ORV-2′G, cis-oxyresveratrol-2′-O-glucuronide], the “metabolite formed/detected in samples” value [3] is reported as “very low” and the “metabolite formed/detected in samples” value [2] is reported as “very low”.
With `O=C(O)[C@H]1O[C@@H](Oc2cc(O)cc(/C=C/c3ccc(O)cc3O)c2)[C@H](O)[C@@H](O)[C@@H]1O` [t-ORV-3G, trans-oxyresveratrol-3-O-glucuronide] the “reduction of ROS production, at the most” value ([5]; ORV metabolites, 50–200 μM tested, concentration not given, 24 h, LPS) was “more than 80%”, the “reduction of NO production” value ([4]; 24 h, LPS 0.1 μg/mL) was 31% and the Vmax [3, 14] was 36 ± 3.57 nmol min^–1 mg^–1 of protein. The Vmax [3, 15] was 319.1 ± 69.77 nmol min^–1 mg^–1 of protein, the Vmax [2, 15] was 11.41 ± 2.32 nmol min^–1 mg^–1 of protein and the “reduction of TNF-α” value ([6]; 200 μM) was 70%.
In the case of `O=C(O)[C@H]1O[C@@H](Oc2cc(O)ccc2/C=C/c2cc(O)cc(O)c2)[C@H](O)[C@@H](O)[C@@H]1O` [t-ORV-2′G, trans-oxyresveratrol-2′-O-glucuronide], the “reduction of NO production” value ([4]; 24 h, LPS 0.1 μg/mL) is reported as 29%, the Vmax [3, 15] is reported as 2.67 ± 0.32 nmol min^–1 mg^–1 of protein and the Vmax [2, 15] is reported as 12.93 ± 1.47 nmol min^–1 mg^–1 of protein.
With `O=C(O)C1OC(Oc2ccc(C=Cc3cc(O)cc(O)c3)c(O)c2)C(O)C(O)C1O` (stereo not shown) [ORV-4′G] the “metabolite formed/detected in samples” value ([3]; incubation of parent ORV or GN with rat S9, UPLC–DAD–MS) was “neither the trans nor the cis form of ORV-4′G was detected” and the “metabolite formed/detected in samples” value [2, 13] was “neither the trans nor the cis form of ORV-4′G was detected”.
For `Oc1cc(O)cc(/C=C/c2ccc(O)cc2O)c1` [t-ORV, trans-2′,3,4′,5-tetrahydroxystilbene], the “concentration from which toxic (MTT)” value [7] is listed as no less than 100 µM, the “concentration from which toxic” value [8] is listed as no less than 80 µM and the cytotoxic effect [9] is listed as “did not observe any cytotoxic effect”. For the same molecule, the “reduction of ROS” value ([5]; 50 μM, 24 h, LPS 0.1 μg/mL) was “more than 70%”, the “decrease of ROS production” value [5, 16] was “more than 50%” and the “reduction of NO production” value ([4]; 24 h, LPS 0.1 μg/mL) was 27.1%. For the same molecule, the “concentration from which NO production significantly reduced” value ([4]; 24 h, LPS 0.1 μg/mL) was no less than 10 µM, the “decrease of NO production” value [4, 16] was “more than 50%” and the “IC30 for cell cytotoxicity” value [10] was “higher than 50 μM”. For the same molecule, the “ability to metabolize ORV into glucuronides, rats versus humans (sum of Vmax/Km)” value ([3]; rat, human, pH 7.4) was greater than 2 fold, the total bioavailability [11] was 9.1-15.2% and the “AUC0–t” value ([12]; rat, in vivo, po) was 5133 μg h L^–1. For the same molecule, the concentration in plasma ([12]; rats, oral administration of ORV 100 mg/kg ref 19) was roughly 10 µM and the “reduction of TNF-α” value ([6]; 50 μM) was 30%.
